Test results taken from ChEMBL document CHEMBL4613218, “Synthesis, in vitro and in vivo biological evaluation of novel graveolinine derivatives as potential anti-Alzheimer agents” (Bioorg Med Chem, 2020).
Active and inactive are the calls of the source. No cut-off for these calls is given here.

Tests used:
[1] = target: Acetylcholinesterase (Electrophorus electricus, UniProt O42275); assay: Inhibition of electric eel AChE using acetylthiocholine chloride as substrate preincubated for 15 mins followed by substrate addition by Ellman's method
[2] = Cytotoxicity against human HepG2 cells assessed as inhibition of cell viability at 10 uM after 48 hrs by MTT assay relative to control; format: cell-based; conditions: read-out: INH
[3] = system: HepG2; assay: Cytotoxicity against human HepG2 cells assessed as growth inhibition after 48 hrs by MTT assay; format: cell-based; conditions: HepG2, 48 h
[4] = Cytotoxicity against rat PC12 cells assessed as inhibition of cell viability at 10 uM after 48 hrs by MTT assay relative to control; format: cell-based, PC-12; conditions: read-out: INH
[5] = target: Amyloid-beta precursor protein (Homo sapiens) (UniProt P05067); assay: Inhibition of self-induced human amyloid beta (1 to 42) peptide aggregation at 20 uM measured after 48 hrs by ThT fluorescence assay relative to control
[6] = target: Cholinesterase (Equus caballus, UniProt P81908); assay: Inhibition of equine serum BuChE using butyrylthiocholine chloride as substrate preincubated for 15 mins followed by substrate addition by Ellman's method
[7] = Selectivity index, ratio of IC50 for electric eel AChE to IC50 for equine serum BuChE
[8] = system: PC-12; assay: Cytotoxicity against rat PC12 cells assessed as growth inhibition after 48 hrs by MTT assay; format: cell-based; conditions: PC-12, 48 h
[9] = target: Amyloid-beta precursor protein (Homo sapiens) (UniProt P05067); assay: Inhibition of self-induced human amyloid beta (1 to 42) peptide aggregation assessed as reduction in number of amyloid beta aggregates at 20 uM measured after 48 hrs by TEM analysis
[10] = target: Acetylcholinesterase (Torpedo californica) (UniProt P04058); assay: Non-competitive inhibition of pacific electric ray AChE pre-incubated with enzyme for 15 mins followed by acetylthiocholine chloride substrate addition by spectrophotometric method based Lineweaver-Burk plot analysis; conditions: Tetronarce californica
[11] = Toxicity in scopolamine-induced cognition deficit ICR mouse model assessed as effect on total distance travelled at 20 umol/kg, po treated 30 mins prior to scopolamine challenge and measured at 30 mins post-scopolamine challenge on day 15 of probe trial by Morris water maze test; format: organism-based; conditions: in vivo, 0.5 h
[12] = system: Mus musculus; assay: (§1) Antialzheimer activity against scopolamine-induced cognition impairment ICR mouse model assessed as increase in swimming time in target quadrant at 20 umol/kg, po treated 30 mins prior to scopolamine challenge and measured at 30 mins post-scopolamine challenge on day 15 of probe trial by water maze test; format: functional, organism-based
[13] = system: Mus musculus; assay: Antialzheimer activity against scopolamine-induced cognition impairment ICR mouse model assessed as mean escape latency time at 20 umol/kg, po treated 30 mins prior to scopolamine challenge and measured at 30 mins post-scopolamine challenge for 4 days of training trial sessions by Morris water maze test (reference value: 59.8 to 62.2 secs); format: functional
[14] = Toxicity in scopolamine-induced cognition deficit ICR mouse model assessed as effect on swimming speed at 20 umol/kg, po treated 30 mins prior to scopolamine challenge and measured at 30 mins post-scopolamine challenge on day 15 of probe trial by Morris water maze test; format: organism-based; conditions: in vivo, 0.5 h
[15] = system: Mus musculus; assay: as §1, with “path length” for “swimming time”, “by Morris” for “by”; format: functional, organism-based
[16] = system: Mus musculus; assay: as §1, with “deficit” for “impairment”, “number of platform crossings” for “swimming time in target quadrant”, “by Morris” for “by”; format: functional, organism-based

Cholinesterase, sequence (P81908 whole entry): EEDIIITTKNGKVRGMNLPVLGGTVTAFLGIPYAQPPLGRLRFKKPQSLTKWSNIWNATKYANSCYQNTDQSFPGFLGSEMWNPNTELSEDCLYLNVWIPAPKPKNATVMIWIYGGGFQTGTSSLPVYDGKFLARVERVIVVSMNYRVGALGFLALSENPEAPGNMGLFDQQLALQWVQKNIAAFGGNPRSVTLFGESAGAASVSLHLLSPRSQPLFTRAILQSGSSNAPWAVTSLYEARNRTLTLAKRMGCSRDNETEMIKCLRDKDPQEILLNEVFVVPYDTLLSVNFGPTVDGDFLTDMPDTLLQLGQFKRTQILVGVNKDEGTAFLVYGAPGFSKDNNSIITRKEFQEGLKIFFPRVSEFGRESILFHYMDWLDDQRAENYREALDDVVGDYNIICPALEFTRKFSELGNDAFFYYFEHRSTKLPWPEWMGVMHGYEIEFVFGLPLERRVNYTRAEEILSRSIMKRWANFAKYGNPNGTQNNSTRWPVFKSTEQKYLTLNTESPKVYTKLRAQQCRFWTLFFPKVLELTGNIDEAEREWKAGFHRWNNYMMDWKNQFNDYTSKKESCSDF
Amyloid-beta precursor protein (Homo sapiens), sequence (P05067 whole entry): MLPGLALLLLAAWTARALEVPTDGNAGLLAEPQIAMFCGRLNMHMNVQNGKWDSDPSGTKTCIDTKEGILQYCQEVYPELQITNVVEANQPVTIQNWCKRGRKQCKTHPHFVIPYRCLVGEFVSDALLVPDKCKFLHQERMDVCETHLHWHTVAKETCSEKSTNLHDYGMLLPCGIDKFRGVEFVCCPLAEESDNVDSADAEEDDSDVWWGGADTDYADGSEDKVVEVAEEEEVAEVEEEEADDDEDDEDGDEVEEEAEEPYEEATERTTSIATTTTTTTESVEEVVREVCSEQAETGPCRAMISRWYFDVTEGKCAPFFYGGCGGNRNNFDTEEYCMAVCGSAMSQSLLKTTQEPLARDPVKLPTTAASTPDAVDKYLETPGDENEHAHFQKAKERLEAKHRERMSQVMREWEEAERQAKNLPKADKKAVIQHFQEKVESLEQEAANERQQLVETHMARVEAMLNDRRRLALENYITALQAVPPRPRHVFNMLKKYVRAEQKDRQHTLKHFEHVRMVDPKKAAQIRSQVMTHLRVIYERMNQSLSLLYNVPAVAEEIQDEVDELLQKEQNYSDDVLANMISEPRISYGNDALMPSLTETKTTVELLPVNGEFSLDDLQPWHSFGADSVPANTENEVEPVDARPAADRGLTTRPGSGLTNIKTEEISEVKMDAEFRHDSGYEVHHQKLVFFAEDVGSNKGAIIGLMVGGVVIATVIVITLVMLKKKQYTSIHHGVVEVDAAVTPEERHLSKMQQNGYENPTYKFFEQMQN
Acetylcholinesterase, sequence (O42275 whole entry): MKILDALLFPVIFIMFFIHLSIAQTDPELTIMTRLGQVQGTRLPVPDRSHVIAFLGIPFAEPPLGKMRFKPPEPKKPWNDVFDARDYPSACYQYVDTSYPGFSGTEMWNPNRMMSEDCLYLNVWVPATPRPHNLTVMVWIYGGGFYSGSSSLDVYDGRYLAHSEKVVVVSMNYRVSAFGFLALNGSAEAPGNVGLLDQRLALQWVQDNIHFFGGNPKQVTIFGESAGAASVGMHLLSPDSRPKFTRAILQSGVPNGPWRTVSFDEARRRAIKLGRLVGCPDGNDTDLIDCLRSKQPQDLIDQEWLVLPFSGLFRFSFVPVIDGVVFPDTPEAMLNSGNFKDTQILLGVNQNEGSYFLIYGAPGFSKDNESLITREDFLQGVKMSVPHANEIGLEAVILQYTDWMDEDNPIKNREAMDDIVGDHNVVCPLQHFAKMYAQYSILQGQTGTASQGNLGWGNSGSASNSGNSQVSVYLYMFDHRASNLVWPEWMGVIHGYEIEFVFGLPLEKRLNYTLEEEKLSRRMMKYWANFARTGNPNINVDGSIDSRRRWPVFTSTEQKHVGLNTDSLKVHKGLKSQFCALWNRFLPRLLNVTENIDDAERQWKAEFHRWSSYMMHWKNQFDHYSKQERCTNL
Acetylcholinesterase (Torpedo californica), sequence (P04058 22-564 limits assumed): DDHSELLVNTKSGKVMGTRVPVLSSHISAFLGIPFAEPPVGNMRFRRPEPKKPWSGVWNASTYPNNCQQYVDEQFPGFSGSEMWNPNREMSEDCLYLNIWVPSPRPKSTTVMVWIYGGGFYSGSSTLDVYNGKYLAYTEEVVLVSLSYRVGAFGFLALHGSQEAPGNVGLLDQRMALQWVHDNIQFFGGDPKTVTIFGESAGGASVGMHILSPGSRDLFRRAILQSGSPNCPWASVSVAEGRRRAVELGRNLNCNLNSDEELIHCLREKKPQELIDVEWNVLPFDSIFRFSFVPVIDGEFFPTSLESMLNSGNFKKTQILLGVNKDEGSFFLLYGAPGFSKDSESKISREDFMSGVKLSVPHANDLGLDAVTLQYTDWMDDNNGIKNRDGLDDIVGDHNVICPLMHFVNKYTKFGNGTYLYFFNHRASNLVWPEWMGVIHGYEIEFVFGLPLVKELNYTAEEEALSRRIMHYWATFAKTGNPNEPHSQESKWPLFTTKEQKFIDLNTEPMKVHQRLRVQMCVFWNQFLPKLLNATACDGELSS

SMILES | IC50 [1] | cytotoxicity at 48 h, 10 µM [2] | IC50 [3] | cytotoxicity at 48 h, 10 µM [4] | inhibition [5] | IC50 [6] | Ratio IC50 [7] | IC50 [8] | inhibition [9] | inhibition [10] | Activity [11] | Activity [12] | Time [13] | Activity [14] | Activity [15] | Activity [16]
c1ccc(-c2cc(N3CCCC3)c3ccccc3n2)cc1 | 3.71 µM | 12.6% | 30.9 µM | 24.2% | 57.7% | 0.43 µM | 8.6 | 24.7 µM |  |  |  |  |  |  |  | 
OCCCCNc1cc(-c2ccc3c(c2)OCO3)nc2ccccc12 | 4.26 µM | < 5% | > 50 µM | 14.7% | 44.1% | 9.78 µM | 0.44 | 34.3 µM |  |  |  |  |  |  |  | 
OCCCNc1cc(-c2ccccc2)nc2ccccc12 | > 10 µM | < 5% | > 50 µM | < 5% | 36.8% | > 10 µM |  | > 50 µM |  |  |  |  |  |  |  | 
COc1cc(/C=C/C(=O)CC(=O)/C=C/c2ccc(O)c(OC)c2)ccc1O |  |  |  |  |  |  |  |  | Active |  |  |  |  |  |  | 
OCCCCCCNc1cc(-c2ccc3c(c2)OCO3)nc2ccccc12 | 4.32 µM | < 5% | > 50 µM | < 5% | 39.4% | 6.49 µM | 0.67 | > 50 µM |  |  |  |  |  |  |  | 
c1ccc(-c2cc(NCCCN3CCOCC3)c3ccccc3n2)cc1 | > 10 µM | 12.7% | 30.1 µM | 12.6% | 55.5% | 4.44 µM | > 2.3 | 35.2 µM |  |  |  |  |  |  |  | 
c1ccc2c(N3CCCC3)cc(-c3ccc4c(c3)OCO4)nc2c1 | 0.72 µM | < 5% | > 50 µM | < 5% | 62.5% | 0.16 µM | 4.5 | > 50 µM | Active | Active | Non-Toxic | Active | 48.1 s | Non-Toxic | Active | Active
OCCCCNc1cc(-c2ccccc2)nc2ccccc12 | 9.85 µM | < 5% | > 50 µM | < 5% | 40.7% | 4.31 µM | 2.3 | > 50 µM |  |  |  |  |  |  |  | 
c1ccc2c(NCCCN3CCCCC3)cc(-c3ccc4c(c3)OCO4)nc2c1 | 4.78 µM | 43.7% | 9.21 µM | 71.5% | 65.6% | 1.45 µM | 3.3 | 7.17 µM |  |  |  |  |  |  |  | 
c1ccc(-c2cc(NCCCN3CCCCC3)c3ccccc3n2)cc1 | > 10 µM | 24.1% | 25.7 µM | 11.6% | 60.3% | 1.19 µM | > 8.4 | 40.5 µM |  |  |  |  |  |  |  | 
c1ccc2c(NCCCN3CCOCC3)cc(-c3ccc4c(c3)OCO4)nc2c1 | 3.22 µM | < 5% | 17.7 µM | < 5% | 61.6% | 8.15 µM | 0.4 | > 50 µM |  |  |  |  |  |  |  | 
OCCCNc1cc(-c2ccc3c(c2)OCO3)nc2ccccc12 | 4.23 µM | < 5% | > 50 µM | 8.38% | 36.6% | > 10 µM | < 0.42 | > 50 µM |  |  |  |  |  |  |  | 
COc1cc(-c2ccc3c(c2)OCO3)nc2ccccc12 [GRAVEOLININE] | 36.3 µM | 8.76% | > 50 µM | < 5% | 26.9% | 28.2 µM | 1.3 | > 50 µM |  |  |  |  |  |  |  | 
c1ccc2c(N3CCCCC3)cc(-c3ccc4c(c3)OCO4)nc2c1 | > 10 µM | < 5% | > 50 µM | < 5% | 48.5% | 2.09 µM | > 4.8 | > 50 µM |  |  |  |  |  |  |  | 
OCCCCCCNc1cc(-c2ccccc2)nc2ccccc12 | 6.22 µM | 12% | 44.2 µM | < 5% | 29.2% | 2.96 µM | 2.1 | > 50 µM |  |  |  |  |  |  |  | 
CCCCNc1cc(-c2ccc3c(c2)OCO3)nc2ccccc12 | 4.8 µM | 15.4% | > 50 µM | 11.2% | 30.6% | 7.85 µM | 0.61 | 46.2 µM |  |  |  |  |  |  |  | 
